Experimental findings from paper PMC6259141, “Phytochemical and Cytotoxic Investigations of Alpinia mutica Rhizomes” (Molecules, 2011) are described below.

For series [1], the system named is HCT116 (colon carcinoma cell line). The series is described as follows: in vitro neutral red cytotoxicity assay, HCT116. The note with it: Homo sapiens, HCT-116, read-out: Cytotoxic activity IC50, HCT116.
Source text: (§1) The in vitro cytotoxic activity was studied by the neutral red cytotoxicity assay [5]. KB (epidermoid carcinoma cell line), MCF7 (hormone-dependent breast carcinoma cell line), A549 (lung carcinoma cell line), CaSki (cervical carcinoma cell line), HCT116 (colon carcinoma cell line), HT29 (colon carcinoma cell line) and non-human fibroblast cell line (MRC 5) were purchased from the American Tissue Culture Collection (ATCC).
Series [2] relates to MCF7 (hormone-dependent breast carcinoma cell line). The series is described as follows: in vitro neutral red cytotoxicity assay, MCF7. Conditions: Homo sapiens, MCF7, read-out: Cytotoxic activity IC50, MCF7.
Source text: as §1
Series [3] is described as follows: in vitro neutral red cytotoxicity assay, MRC5. The note with it: human, MRC5 fibroblast cells (normal, non-cancer).
Source text: as §1
Series [4] relates to KB (epidermoid carcinoma cell line). The series is described as follows: in vitro neutral red cytotoxicity assay, KB. Conditions: Homo sapiens, read-out: Cytotoxic activity IC50, KB.
Source text: as §1
Series [5] deals with CaSki (cervical carcinoma cell line). The experiment in a line: in vitro neutral red cytotoxicity assay, CaSki. Conditions: Homo sapiens, Ca-Ski, read-out: Cytotoxic activity IC50, CaSki.
Source text: as §1
In series [6] the test system is MCF7 (hormone-dependent breast carcinoma cell line).
Source text: as §1
Series [7] concerns HCT116 (colon carcinoma cell line).
Source text: as §1
For series [8], the system named is CaSki (cervical carcinoma cell line).
Source text: as §1
The test system of series [9] is MRC5 fibroblast cell line (non-cancer).
Source text: as §1
In series [10] the test system is KB (epidermoid carcinoma cell line).
Source text: as §1
Series [11] relates to A549 (lung carcinoma cell line). The series is described as follows: in vitro neutral red cytotoxicity assay, A549. The format is cell-based. Conditions: Homo sapiens, A549 cells, averaged from three experiments, read-out: Cytotoxic activity IC50, A549.
Source text: as §1
Series [12] concerns HT29 (colon carcinoma cell line). The series is described as follows: in vitro neutral red cytotoxicity assay, HT29. The format is cell-based. The note with it: Homo sapiens, HT-29, HT29 cells, averaged from three experiments, read-out: Cytotoxic activity IC50, HT29.
Source text: as §1

In brackets after ≈: the same amount, converted by molar mass. Some results are limits rather than exact numbers.

As to `COc1cc(O)c(C(=O)/C=C/c2ccccc2)c(O)c1` [Pinostrobin chalcone (3), pinostrobin chalcone], the IC50 (as a rule, the concentration at which inhibition is half-maximal) is 54.1 ± 4.6 µg/mL (≈ 200 µM) in series [1]; 7.3 ± 0.6 µg/mL (≈ 27 µM) in [2]; 7.9 ± 0.8 µg/mL (≈ 29.2 µM) in [3]; 6.2 ± 0.2 µg/mL (≈ 22.9 µM) in series [4]; 7.7 ± 0.2 µg/mL (≈ 28.5 µM) in series [5].

As to alpinetin [Alpinetin (4)], the “Cytotoxic activity IC50, MCF7” value in series [6] was above 100 µg/mL. Further, in series [7], the “Cytotoxic activity IC50, HCT116” value was 39.6 ± 2.0 µg/mL. The “Cytotoxic activity IC50, CaSki” value in series [8] is recorded as above 100 µg/mL. Also, in [9], the “Cytotoxic activity IC50, MRC5” value was above 100 µg/mL. In addition, the “Cytotoxic activity IC50, KB” value in series [10] is above 100 µg/mL.

In the case of `COc1cccc2c1C(=O)c1c(O)c3c(c(O)c1C2=O)C[C@@](O)(C(=O)CO)C[C@@H]3O[C@H]1C[C@H](N)[C@H](O)[C@H](C)O1` [Doxorubicin, reference compound], the concentration for half-maximal inhibition (IC50) was found to be 0.24 ± 0.04 µg/mL (≈ 0.442 µM) in [1]; 0.58 ± 0.01 µg/mL (≈ 1.07 µM) in series [11]; 0.05 ± 0.01 µg/mL (≈ 0.092 µM) in series [2]; 0.4 ± 0.03 µg/mL (≈ 0.736 µM) in series [3]; 0.33 ± 0.03 µg/mL (≈ 0.607 µM) in series [12]; 0.18 ± 0.06 µg/mL (≈ 0.331 µM) in [5].

Consider `COc1cc(O)c(C(=O)/C=C/c2ccccc2)c(OC)c1` [Flavokawin B (1), flavokawin B], for which the concentration for half-maximal inhibition (IC50) was determined as 6.4 ± 0.2 µg/mL (≈ 22.5 µM) in series [1]; 49.3 ± 1.8 µg/mL (≈ 173 µM) in series [2]; 17.2 ± 0.5 µg/mL (≈ 60.5 µM) in series [3]; 5.7 ± 0.4 µg/mL (≈ 20 µM) in series [4]; 31.1 ± 1.3 µg/mL (≈ 109 µM) in series [5].
